These results are taken from patent US8372978B2, “Salts of methyl 2-((R)-(3-chlorophenyl)((R)-1-((S)-2-(methylamino)-3-((R)-tetrahydro-2H-pyran-3-yl)propylcarbamoyl)piperidin-3-yl)methoxy)ethylcarbamate” (Vitae Pharmaceuticals, Inc., priority 2009, dated 2013).

Counter-ions that a name gives are not always drawn.

In general, Cmax refers to the peak of the concentration-time curve. As usually defined, the solubility is how much of the substance goes into solution per volume.

The nature of data set [1]: Pharmacokinetics after oral administration, plasma by LC/MS/MS, rat. Particulars: for AUC(0-t) / DNAUC0-t / Cmax: oral, 10 mg/kg (as salt), 0.5% methylcellulose in water. Type of data set: in vivo. The protocol:
IV formulations were prepared in 1% DMSO in sterile saline. PO formulations were prepared in 0.5% methylcellulose in water, unless otherwise indicated. After compound administration, plasma samples were obtained through 24 hours post-dosing from each animal using K2EDTA as the anticoagulant. Plasma samples were treated with two volumes of acetonitrile containing an internal standard (ritanserin). Samples were centrifuged at 4,000 rpm for 10 minutes at 25° C. Ten microliters of the supernatant was analyzed using LC/MS/MS. Standard curves are prepared for each species and range from 1.0 to 500 ng/mL The compound of Formula (I) and the internal standard were separated by reverse-phase HPLC using a gradient mobile phase and detected by +APCI monitoring the transitions m/z 525→327 (compound of Formula (I)) and m/z 478→193 (ritanserin).

The nature of data set [2]: Pharmacokinetics after oral administration, plasma by LC/MS/MS, dog. Type of data set: in vivo. The settings on record: for DNAUC0-t / AUC(0-t) / Cmax: oral; for AUC(0-t) / Cmax: plasma. The protocol: (§1) IV formulations were prepared in 1% DMSO in sterile saline. PO formulations were prepared in 0.5% methylcellulose in water, unless otherwise indicated. After compound administration, plasma samples were obtained through 24 hours post-dosing from each animal using K2EDTA as the anticoagulant. Plasma samples were treated with two volumes of acetonitrile containing an internal standard (ritanserin). Samples were centrifuged at 4,000 rpm for 10 minutes at 25° C. Ten microliters of the supernatant was analyzed using LC/MS/MS.

The nature of data set [3]: Pharmacokinetics after oral administration, plasma by LC/MS/MS, monkey. The settings on record: for DNAUC0-t / AUC(0-t) / Cmax: oral, 0.5% methylcellulose in water; for AUC(0-t) / Cmax: plasma. Type of data set: in vivo. How it is done: as §1
Data set [4] is described as follows: Hygroscopicity. Type of data set: physicochemical.
A short description of data set [5]: Water solubility. The data set is classed as physicochemical.
Setting [6] is: 1 mg/kg (as salt), 2% DMSO in water.
Where [7] appears, read: 2 mg/kg (as salt), 0.5% methylcellulose in water.

As to `CN[C@H](CNC(=O)N1CCC[C@@H]([C@@H](OCCNC(=O)OC)c2cccc(Cl)c2)C1)C[C@H]1CCCOC1.O=C(O)/C=C/C(=O)O` [Fumarate, methyl 2-((R)-(3-chlorophenyl)((R)-1-((S)-2-(methylamino)-3-((R)-tetrahydro-2H-pyran-3-yl)propylcarbamoyl)piperidin-3-yl)methoxy)ethylcarbamate fumaric acid salt], the results for the AUC(0-t) in data set [1], in data set [2] (setting [6]) and in data set [3] (2 mg/kg (as salt)) were 477 ng·h/mL, 458 ng·h/mL and 381 ng·h/mL, respectively. The DNAUC0-t came to 48 ng·h/mL in data set [1], 458 ng·h/mL in data set [2] (setting [6]) and 191 ng·h/mL in data set [3] (2 mg/kg (as salt)). Moreover, the values for the Cmax in data set [1] (plasma), in data set [2] (setting [6]) and in data set [3] (2 mg/kg (as salt)) were 156 ng/mL, 286 ng/mL and 145 ng/mL, respectively.
Consider `CN[C@H](CNC(=O)N1CCC[C@@H]([C@@H](OCCNC(=O)OC)c2cccc(Cl)c2)C1)C[C@H]1CCCOC1` [Mucate, methyl 2-((R)-(3-chlorophenyl)((R)-1-((S)-2-(methylamino)-3-((R)-tetrahydro-2H-pyran-3-yl)propylcarbamoyl)piperidin-3-yl)methoxy)ethylcarbamate mucic acid salt (Form B)], for which the “in vivo bioavailability (in words)” value in data set [1], in data set [2] and in data set [3] was “good in vivo bioavailability” in each case. The DNAUC0-t came out at 68 ng·h/mL in data set [1], 447 ng·h/mL in data set [2] (setting [7]) and 269 ng·h/mL in data set [3] (3 mg/kg (as salt)). The figures for the Cmax in data set [1] (plasma), in data set [2] (setting [7]) and in data set [3] (3 mg/kg (as salt)) were 238 ng/mL, 294 ng/mL and 266 ng/mL, respectively. Also, the AUC(0-t) worked out at 681 ng·h/mL in data set [1] (plasma, read-out: AUC0-t); 895 ng·h/mL in data set [2] (setting [7]); 807 ng·h/mL in data set [3] (3 mg/kg (as salt)). For the same compound, the “hygroscopicity (in words)” value in data set [4] was “sufficiently non-hygroscopic”. Further, the “water solubility (in words)” value in data set [5] was “good water solubility”. The same compound registered a solubility in data set [5] (water, temperature not stated) of 65 ± 5 mg/mL.
